For 17 compounds, Ki results are on record in ChEMBL document CHEMBL1133499, “Design, synthesis, and in vitro biological activity of indole-based factor Xa inhibitors” (Bioorg Med Chem Lett, 2000).

For one experiment, the target named is Coagulation factor X (Homo sapiens, UniProt P00742). The experiment is described as follows: In vitro inhibition of human Coagulation factor X.
In a further experiment the target is Prothrombin (Homo sapiens, UniProt P00734). The experiment is described as follows: In vitro inhibition of human Coagulation factor II.

Coagulation factor X, sequence (P00742 41-179 limits assumed): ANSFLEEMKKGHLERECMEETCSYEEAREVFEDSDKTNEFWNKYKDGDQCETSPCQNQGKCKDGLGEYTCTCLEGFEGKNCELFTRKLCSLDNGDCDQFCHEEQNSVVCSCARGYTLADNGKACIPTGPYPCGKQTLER
Coagulation factor X, sequence (P00742 235-488 limits assumed): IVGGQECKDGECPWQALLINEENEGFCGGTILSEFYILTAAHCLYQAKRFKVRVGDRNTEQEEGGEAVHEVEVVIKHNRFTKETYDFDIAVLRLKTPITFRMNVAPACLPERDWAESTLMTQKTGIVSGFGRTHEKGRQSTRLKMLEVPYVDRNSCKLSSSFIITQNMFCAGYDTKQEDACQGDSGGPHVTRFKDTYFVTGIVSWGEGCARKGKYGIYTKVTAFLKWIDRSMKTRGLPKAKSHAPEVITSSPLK

With `N=C(N)c1cccc(CNc2ccc3ccn(-c4cccc(C(=N)N)c4)c3c2)c1`, the Ki – broadly, a measure of affinity in units of concentration, obtained from inhibition or displacement – on Coagulation factor X was determined as 190 nM; at Prothrombin, 4000 nM.

Turning to `N=C(N)c1ccc(-n2ccc3ccc(NCc4ccc5ccc(C(=N)N)cc5c4)cc32)cc1`, the Ki at Coagulation factor X was 30 nM; at Prothrombin, 570 nM.

Turning to `N=C(N)c1ccc(-n2ccc3ccc(NCc4cccc(C(=N)N)c4)cc32)cc1`, the Ki at Coagulation factor X was 340 nM; on Prothrombin, 3780 nM.

Regarding `CC(=N)N1CCC(Oc2ccc3cc(C(=O)NC(CC(=O)O)C(=O)O)n(Cc4ccc5ccc(C(=N)N)cc5c4)c3c2)CC1` (configuration not stated), the Ki on Coagulation factor X was 20 nM; at Prothrombin, 2350 nM.

The compound `N=C(N)c1ccc(CNc2ccc3ccn(Cc4ccc(C(=N)N)cc4)c3c2)cc1` displayed a Ki at Prothrombin of 3530 nM.

Regarding `N=C(N)c1ccc2ccc(Cn3c4ccccc4c4ccc(OC5CCNCC5)cc43)cc2c1`, the values for the Ki on Coagulation factor X and on Prothrombin were 4 nM and 90 nM, respectively.

Regarding `N=C(N)c1cccc(Oc2ccc3c4ccccc4n(Cc4ccc5ccc(C(=N)N)cc5c4)c3c2)c1`, the Ki is 0.9 nM on Coagulation factor X and 170 nM at Prothrombin.

For `CN(C)C(=O)COc1ccc2c3ccccc3n(Cc3ccc4ccc(C(=N)N)cc4c3)c2c1`, the figures for the Ki on Coagulation factor X and at Prothrombin were 5 nM and 50 nM, respectively.

On to `N=C(N)c1ccc(Oc2ccc3c4ccccc4n(Cc4ccc5ccc(C(=N)N)cc5c4)c3c2)cc1`, for which the inhibition constant (Ki) on Prothrombin was 210 nM.

For the compound `CC(=N)N1CCC(Oc2ccc3cc(C(=O)O)n(Cc4ccc5ccc(C(=N)N)cc5c4)c3c2)CC1`, the figures for the Ki at Coagulation factor X and on Prothrombin were 4.6 nM and 520 nM, respectively.

On to `COC(=O)c1cc2ccc(OC3CCN(C(C)=N)CC3)cc2n1Cc1ccc2ccc(C(=N)N)cc2c1`, for which the Ki at Coagulation factor X is 0.2 nM; at Prothrombin it was 180 nM.

As to `N=C(N)c1ccc(-n2c3ccccc3c3ccc(OCc4ccc5ccc(C(=N)N)cc5c4)cc32)cc1`, the Ki on Coagulation factor X came to 60 nM; at Prothrombin, 1990 nM.

Take `CC(=N)N1CCC(Oc2ccc3cc(C(=O)N(C)C)n(Cc4ccc5ccc(C(=N)N)cc5c4)c3c2)CC1`: the values for the Ki on Coagulation factor X and at Prothrombin were 3.5 nM and 1050 nM, respectively.

Consider `N=C(N)c1ccc(CNc2ccc3ccn(-c4ccc(C(=N)N)cc4)c3c2)cc1`, for which the Ki was 840 nM at Coagulation factor X and 4530 nM on Prothrombin.

For the compound `N=C(N)c1ccc(-n2ccc3ccc(NC(=O)c4cccc(C(=N)N)c4)cc32)cc1`, the Ki came out at 160 nM at Coagulation factor X and 2320 nM at Prothrombin.

For the compound `CC(=N)N1CCC(Oc2ccc3c4ccccc4n(Cc4ccc5ccc(C(=N)N)cc5c4)c3c2)CC1`, the Ki came out at 1.6 nM on Coagulation factor X and 40 nM at Prothrombin.

`CCOC(=O)c1cc2ccc(OC3CCN(C(C)=N)CC3)cc2n1Cc1ccc2ccc(C(=N)N)cc2c1`: the Ki on Coagulation factor X amounted to 0.6 nM; at Prothrombin, 360 nM.
